# Data as given in US20090004185A1, “AMINO-SUBSTITUTED QUINAZOLINE DERIVATIVES AS INHIBITORS OF BETA-CATENIN/TCF-4 PATHWAY AND CANCER TREATMENT AGENTS” (WYETH, priority 2007, published 2009).
# Tests used:
# SV40-Luc = SV40-Luc control luciferase reporter assay, SV 5A8 cell line (SV40-Luc and SV40-R-Luc), control for non-specific inhibitors; assay type: cell-based, human; settings: SV 5A8 cells derived from SW480, 24 hours of incubation with compound, ratio Firefly/Renilla luciferase
# Summary of the method: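 Cells were plated and, 20-24 hours later, treated with titrated compound (0.316% DMSO final). After 24 hours they were lysed or given Dual-Glo reagent, and firefly then Renilla luminescence was measured. IC50s came from firefly/Renilla ratios as % of control.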
# β-catenin/Tcf-4 = assay: cells; assay type: cell-based; settings: 24 hours of incubation with compound, ratio Firefly/Renilla luciferase
# Summary of the method: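 SW480-derived lines with integrated reporters (Tcf-4-driven firefly luciferase; SV40 firefly as specificity control; SV40 Renilla for cell number/toxicity), treated 24 hours with titrated compounds, final 0.316% DMSO. Dual-luciferase read-out; firefly/Renilla ratio as % of control, duplicate plates, IC50 (nM) from curve fit.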
# [1] = Homo sapiens, SW480, 24 h, Tcf 33.13 cells derived from SW480
# [2] = Homo sapiens, Tcf22C11, 24 h, Tcf 22C11 cells derived from SW480
# [3] = Tcf 22C11 cells derived from SW480
# [4] = Tcf 33.13 cells derived from SW480
Compound,"IC50 (SV40-Luc; Homo sapiens, SV5A8, 24 h) [nM]",IC50 (β-catenin/Tcf-4; [1]) [nM],IC50 (β-catenin/Tcf-4; [2]) [nM],IC50 (SV40-Luc) [nM],IC50 (β-catenin/Tcf-4; [3]) [nM],IC50 (β-catenin/Tcf-4; [4]) [nM]
"CCOC(=O)N1CCN(c2nc(NCc3ccc(NC(=O)c4ccc(F)cc4)cc3)c3cc(C)ccc3n2)CC1 [Example 54, Ethyl 4-[4-({4-[(4-fluorobenzoyl)amino]benzyl}amino)-6-methylquinazolin-2-yl]piperazine-1-carboxylate]",> 18400,846,1230,–,–,–
"CN(C)c1nc(NCc2ccc(NC(=O)c3ccc(F)cc3)cc2)c2cc(F)ccc2n1 [Example 60, N-[4-({[2-(dimethylamino)-6-fluoroquinazolin-4-yl]amino}methyl)phenyl]-4-fluorobenzamide]",> 11500,1950,5390,–,–,–
"CN(C)c1nc(NCc2ccc(NC(=O)c3ccc(F)cc3)cc2)c2ccc(CN)cc2n1 [Example 90, N-[4-({[7-(aminomethyl)-2-(dimethylamino)quinazolin-4-yl]amino}methyl)phenyl]-4-fluorobenzamide]",> 4830,1300,2860,–,–,–
CN(C)c1cccc(-c2ccc3nc(N(C)C)nc(NCc4ccc(C(=O)Nc5ccc(F)cc5)cc4)c3c2)c1 [Example 170],–,–,–,> 2340,692,806
"Cc1ccc(CN2CCC(C(=O)Nc3ccc(CNc4nc(N(C)C)nc5cc(C)ccc45)cc3)CC2)cc1 [Example 247, N-[4-({[2-(dimethylamino)-7-methylquinazolin-4-yl]amino}methyl)phenyl]-1-(4-methylbenzyl)piperidine-4-carboxamide]",> 4200,467,539,–,–,–
"CNc1nc(NCc2ccc(NC(=O)c3ccccc3F)cc2)c2cc(C)ccc2n1 [Example 47, 2-fluoro-N-[4-({[6-methyl-2-(methylamino)quinazolin-4-yl]amino}methyl)phenyl]benzamide]",> 24100,12800,12000,–,–,–
"Cc1ccc2nc(N3CCN(c4ccccn4)CC3)nc(NCc3ccc(NC(=O)C4CCN(Cc5ccccc5)CC4)cc3)c2c1 [Example 79, 1-benzyl-N-[4-({[6-methyl-2-(4-pyridin-2-ylpiperazin-1-yl)quinazolin-4-yl]amino}methyl)phenyl]piperidine-4-carboxamide]",> 16000,1680,2350,–,–,–
"O=C(Nc1ccc(CNc2nc(N3CCN(c4ncccn4)CC3)nc3ccc(C(F)(F)F)cc23)cc1)c1ccc(Cl)cc1 [Example 164, 4-chloro-N-[4-({[2-(4-pyrimidin-2-ylpiperazin-1-yl)-6-(trifluoromethyl)quinazolin-4-yl]amino}methyl)phenyl]benzamide]",> 8080,4310,5190,–,–,–
"C#Cc1ccc2c(NCc3ccc(NC(=O)c4ccc(F)cc4)cc3)nc(N(C)C)nc2c1 [Example 108, N-[4-({[2-(dimethylamino)-7-ethynylquinazolin-4-yl]amino}methyl)phenyl]-4-fluorobenzamide]",> 5250,236,508,–,–,–
4-chloro-2-fluoro-N-[4-({[6-methyl-2-(methylamino)quinazolin-4-yl]amino}methyl)phenyl]benzamide [Example 26],–,–,–,> 2780,739,614
"CC(C)c1ccc2c(NCc3ccc(NC(=O)c4ccc(F)cc4)cc3)nc(N(C)C)nc2c1 [Example 61, N-[4-({[2-(dimethylamino)-7-isopropylquinazolin-4-yl]amino}methyl)phenyl]-4-fluorobenzamide]",> 5060,327,532,–,–,–
"CNc1nc(NCc2ccc(NC(=O)c3ccc(OC(F)(F)F)cc3)cc2)c2ccccc2n1 [Example 22, N-[4-({[2-(methylamino)quinazolin-4-yl]amino}methyl)phenyl]-4-(trifluoromethoxy)benzamide]",> 2670,1230,1380,–,–,–
"O=C(Nc1ccc(CNc2nc(N3CCN(c4ncccn4)CC3)nc3ccc(C(F)(F)F)cc23)cc1)C1CCN(Cc2ccc(F)cc2)CC1 [Example 157, 1-(4-fluorobenzyl)-N-[4-({[2-(4-pyrimidin-2-ylpiperazin-1-yl)-6-(trifluoromethyl)quinazolin-4-yl]amino}methyl)phenyl]piperidine-4-carboxamide]",> 7140,> 3570,> 7140,–,–,–
"C/C=C/c1ccc2c(NCc3ccc(NC(=O)c4ccc(Cl)nc4)cc3)nc(N(C)C)nc2c1 [Example 112, 6-chloro-N-{4-[({2-(dimethylamino)-7-[(1E)-prop-1-en-1-yl]quinazolin-4-yl}amino)methyl]phenyl}nicotinamide]",> 4910,118,249,–,–,–
"Cc1cc(C)c2nc(N(C)C)nc(NCc3ccc(NC(=O)c4ccc(F)cc4)cc3)c2c1 [Example 52, N-[4-({[2-(dimethylamino)-6,8-dimethylquinazolin-4-yl]amino}methyl)phenyl]-4-fluorobenzamide]",> 22500,1310,1650,–,–,–
"CN(C)c1nc(NCc2ccc(NC(=O)c3ccc(F)cc3)cc2)c2ccc(-c3ccccc3C=O)cc2n1 [Example 98, N-[4-({[2-(dimethylamino)-7-(2-formylphenyl)quinazolin-4-yl]amino}methyl)phenyl]-4-fluorobenzamide]",> 19200,2960,> 2410,–,–,–
"CNc1nc(NCc2ccc(NC(=O)c3ccc(F)cc3F)cc2)c2cc(C)ccc2n1 [Example 34, 2,4-difluoro-N-[4-({[6-methyl-2-(methylamino)quinazolin-4-yl]amino}methyl)phenyl]benzamide]",> 11500,3230,4190,–,–,–
"CCN(C)c1nc(NCc2ccc(NC(=O)c3ccc(F)cc3)cc2)c2ccc(C)cc2n1 [Example 210, N-{4-[({2-[ethyl(methyl)amino]-7-methylquinazolin-4-yl}amino)methyl]phenyl}-4-fluorobenzamide]",> 5640,825,1380,–,–,–
"Cc1c(F)ccc2c(NCc3ccc(NC(=O)c4ccc(Cl)nc4)cc3)nc(N(C)C)nc12 [Example 64, 6-chloro-N-[4-({[2-(dimethylamino)-7-fluoro-8-methylquinazolin-4-yl]amino}methyl)phenyl]nicotinamide]",> 10800,8960,11100,–,–,–
"O=C(Nc1ccc(CNc2nc(N3CCC3)nc3ccc(C(F)(F)F)cc23)cc1)C1CCN(Cc2ccc(F)cc2)CC1 [Example 155, N-[4-({[2-azetidin-1-yl-6-(trifluoromethyl)quinazolin-4-yl]amino}methyl)phenyl]-1-(4-fluorobenzyl)piperidine-4-carboxamide]",> 8440,3490,> 2110,–,–,–
"Cc1ccc2nc(N3CCCC3)nc(NCc3ccc(NC(=O)c4ccc(F)cc4)cc3)c2c1 [Example 44, N-(4-((2-(1-azacyclopentyl)-6-methylquinazolin-4-ylamino)methyl)phenyl)-4-fluorobenzamide]",> 22000,> 22000,> 22000,–,–,–
"CNc1nc(NCc2ccc(NC(=O)c3ccc(C(F)(F)F)cc3)cc2)c2cc(C)ccc2n1 [Example 27, N-[4-({[6-methyl-2-(methylamino)quinazolin-4-yl]amino}methyl)phenyl]-4-(trifluoromethyl)benzamide]",> 5370,402,526,–,–,–
"Cc1ccc2c(NCc3ccc(NC(=O)c4ccc(F)cc4)cc3)nc(N3CCN(c4ccccc4)CC3)nc2c1 [Example 212, 4-fluoro-N-[4-({[7-methyl-2-(4-phenylpiperazin-1-yl)quinazolin-4-yl]amino}methyl)phenyl]benzamide]",> 12900,2680,3100,–,–,–
"C/C=C\c1ccc2c(NCc3ccc(NC(=O)C4CCN(Cc5ccccc5)CC4)cc3)nc(N(C)C)nc2c1 [Example 153, 1-benzyl-N-{4-[({2-(dimethylamino)-7-[(1Z)-prop-1-en-1-yl]quinazolin-4-yl}amino)methyl]phenyl}piperidine-4-carboxamide]",> 4110,305,462,–,–,–
"O=C(O)CNc1nc(NCc2ccc(NC(=O)c3ccc(F)cc3)cc2)c2ccccc2n1 [Example 127, N-[4-({4-[(4-fluorobenzoyl)amino]benzyl}amino)quinazolin-2-yl]glycine]",> 22400,> 22400,> 22400,–,–,–
"Cc1ccc2c(NCc3ccc(NC(=O)c4ccc(F)cc4)cc3)nc(N(C)CCO)nc2c1 [Example 214, 4-fluoro-N-{4-[({2-[(2-hydroxyethyl)(methyl)amino]-7-methylquinazolin-4-yl}amino)methyl]phenyl}benzamide]",> 1090,379,452,–,–,–
CN(C)c1nc(NCc2ccc(C(=O)Nc3ccc(F)cc3)cc2)c2cc(/C=C/C(C)(C)C)ccc2n1 [Example 176],–,–,–,> 4680,556,425
"Cc1ccc2c(NCc3ccc(NC(=O)C4CCN(Cc5c(F)cc(F)cc5F)CC4)cc3)nc(N(C)C)nc2c1 [Example 260, N-[4-({[2-(dimethylamino)-7-methylquinazolin-4-yl]amino}methyl)phenyl]-1-(2,4,6-trifluorobenzyl)piperidine-4-carboxamide]",> 7870,203,215,–,–,–
